Measurements: patent publication US20240208978A1, “IDH MUTANT INHIBITOR AND USE THEREOF” (WIGEN BIOMEDICINE TECHNOLOGY (SHANGHAI) CO., LTD., priority 2021, published 2024)

Columns and labels:
[1] = target: T1, IDH1 R132C (Homo sapiens, UniProt O75874, R132C); experiment: Detection of 2-HG in supernatant of HT1080 cells carrying IDH1 R132C; assay type: cell-based; conditions: 72 h, LC-MS-MS
T1 construct: endogenous in cells; host or cells: HT1080
Procedure: (§1) U87MG cells overexpressing the mIDH1 R132H mutation or HT1080 cells carrying IDH1 R132C were seeded in a 48-well plate and a 96-well plate at 50,000 cells/well and 10,000 cells/well, respectively. After the cells were incubated overnight for adhesion, the supernatants were removed. The cell culture media containing serially diluted compounds were added, and the cells were incubated for 72 h. After 72 h, the culture media were collected and diluted 10-fold and 20-fold with water, respectively. Acetonitrile was added to extract the metabolites. The 2-HG content in the culture media was analyzed by LC-MS-MS. The percentage inhibition and IC50 of the compounds on 2-HG in the supernatant were calculated as compared with the control group.

[2] = Stability test of mouse liver microsomes; assay type: in vitro ADME; conditions: 1 μM compound, 500 μg/ml mouse liver microsomes, NADPH regeneration system, 37° C.; read-out: Liver microsomal stability T1/2, Mouse
Procedure: (§2) After the 1 μM compound was incubated with 500 μg/ml of human or mouse liver microsomes and a NADPH regeneration system at 37° C. for different times, respectively, LC-MS-MS was used to analyze the remaining amount of the compound and calculate T1/2.

[3] = Stability test of human liver microsomes; assay type: in vitro ADME; conditions: 1 μM compound, 500 μg/ml human liver microsomes, NADPH regeneration system, 37° C.; read-out: Liver microsomal stability T1/2, Human
Procedure: as §2

[4] = target: T2, mIDH1 R132H (Homo sapiens, UniProt O75874, R132H); experiment: Detection of 2-HG in supernatant of U87-IDH1 R132H cells; assay type: cell-based; conditions: U-87 MG, 72 h, U87MG cells overexpressing mIDH1 R132H, LC-MS-MS; for inhibition at 0.001 µM: 1 nM compound, read-out: Inhibition rate on 2-HG in the supernatant of U87-IDH R132H cells, 1 nM; for inhibition at 0.01 µM: 10 nM compound, read-out: Inhibition rate on 2-HG in the supernatant of U87-IDH R132H cells, 10 nM; for inhibition at 0.1 µM: 100 nM compound, read-out: Inhibition rate on 2-HG in the supernatant of U87-IDH R132H cells, 100 nM
T2 construct: expressed in transfected cells; host or cells: U87MG
Procedure: as §1

T2 sequence (O75874 whole entry R132H): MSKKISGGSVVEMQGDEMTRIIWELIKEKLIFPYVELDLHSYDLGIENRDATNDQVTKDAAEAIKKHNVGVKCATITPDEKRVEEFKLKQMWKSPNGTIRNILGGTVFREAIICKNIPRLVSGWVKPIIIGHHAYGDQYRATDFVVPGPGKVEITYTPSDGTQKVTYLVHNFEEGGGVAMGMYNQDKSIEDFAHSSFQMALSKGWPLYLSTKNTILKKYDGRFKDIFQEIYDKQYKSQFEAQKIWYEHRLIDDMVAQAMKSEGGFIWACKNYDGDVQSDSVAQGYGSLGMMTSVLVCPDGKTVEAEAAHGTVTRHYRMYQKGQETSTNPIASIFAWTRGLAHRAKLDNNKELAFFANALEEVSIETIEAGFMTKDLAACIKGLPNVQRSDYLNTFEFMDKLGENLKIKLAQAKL
T1 sequence (O75874 whole entry R132C): as the sequence (O75874 whole entry R132H) above, with H132C counted along it

| Structure (SMILES) | IC50 [1] [nM] | half-life at 1 μM [2] [min] | half-life at 1 μM [3] [min] | inhibition at 0.001 µM [4] [%] | inhibition at 0.01 µM [4] [%] | inhibition at 0.1 µM [4] [%] |
| --- | --- | --- | --- | --- | --- | --- |
| C=CC(=O)N1CCN([C@H](CC2CC2)c2ccc([C@H](C)Nc3ncc4[nH]c(=O)n(C(C)C)c4n3)cc2)CC1 [Compound 3-2] | 2.36 |  |  |  |  |  |
| C=CC(=O)N1CCN([C@@H](CC2CC2)c2ccc([C@H](C)Nc3ncc4[nH]c(=O)n(CC)c4n3)cc2)CC1 [Compound 1-1] | 2.24 | 4.4 | 11.3 |  |  |  |
| C=CC(=O)N1CCN([C@@H](CC2CC2)c2ccc([C@H](C)Nc3ncc4[nH]c(=O)n(C(C)C)c4n3)cc2)CC1 [Compound 3-1] | 1.22 | 4 | 5 |  |  |  |
| C=CC(=O)N1CCN([C@@H](CC2CC2)c2ccc([C@H](C)Nc3ncc4[nH]c(=O)n(C5CCC5)c4n3)cc2)CC1 [Compound 5-1] | 2.63 |  |  |  |  |  |
| C=CC(=O)N1CCN(C(CC2CC2)c2ccc([C@H](C)Nc3ncc4[nH]c(=O)n(CC)c4n3)cc2)CC1 (stereo partly drawn) [Compound 1, 2-(((1S)-1-(4-(1-(4-acryloylpiperazin-1-yl)-2-cyclopropylethyl)phenyl)ethyl)amino)-9-ethyl-7,9-dihydro-8H-purin-8-one] | 4.48 |  |  | 60 to 90 | > 90 | > 90 |
| C=CC(=O)N1CCN([C@@H](CC2CC2)c2ccc([C@H](C)Nc3ncc4[nH]c(=O)n(C5CC5)c4n3)cc2)CC1 [Compound 4-1] | 11.5 |  |  |  |  |  |
| C=CC(=O)N1CCN(C(CC2CC2)c2ccc([C@H](C)Nc3ncc4[nH]c(=O)n(C(C)C)c4n3)cc2)CC1 (some centres unmarked) [Compound 3] | 2.06 |  |  | 30 to 60 | > 90 | > 90 |
| C=CC(=O)N1CCN([C@@H](CC2CC2)c2ccc([C@H](C)Nc3ncc4c(n3)N(CC)C(=O)OC4)cc2)CC1 [LY-3410738, reference compound] | 1.9 | 1.6 | 1.8 | 30 to 60 | > 90 | > 90 |
| C=CC(=O)N1CCN(C(CC2CC2)c2ccc(C(C)Nc3ncc4[nH]c(=O)n(C5CCCC5)c4n3)cc2)CC1 (centres unmarked) [Compound 6-1] | 3.22 | 3.9 | 4.4 |  |  |  |
| C=CC(=O)N1CCN(C(CC2CC2)c2ccc([C@H](C)Nc3ncc4[nH]c(=O)n(C)c4n3)cc2)CC1 (some centres unmarked) [Compound 2] |  |  |  | 30 to 60 | 60 to 90 | > 90 |
| C=CC(=O)N1CCN(C(CC(C)C)c2ccc([C@H](C)Nc3ncc4[nH]c(=O)n(C5CC5)c4n3)cc2)CC1 (some centres unmarked) [Compound 30] |  |  |  | 30 to 60 | > 90 | > 90 |
| C=CC(=O)N1CC2(CCN(C(CC3CC3)c3ccc([C@H](C)Nc4ncc5[nH]c(=O)n(CC)c5n4)cc3)C2)C1 (some centres unmarked) [Compound 21] |  |  |  | 30 to 60 | 60 to 90 | > 90 |
